According to patent publication US11479784B2, “Modulation of seed vigor” (Syngenta Participations AG, priority 2012, dated 2022):

Tests used:
seeds of SL101 = test: Sensitivity to low temperatures during germination on paper, pretreatment in GA3 solution; format: in vivo, Brassica oleracea
Method: (§1) Two replicates of 50 seeds per treatment were incubated at 5° C. or 10° C. in the light as described before for a germination test on paper. Incubation was in water or in a 1 mM solution of GA3. After 10 days seeds that had germinated were removed. The boxes with the remaining non-germinated seeds were then placed at 20° C. in the light. After a further 5 days the number of germinated seeds was counted. As a comparison seeds of both A12 and SL101 were germinated at 20° C. in the light without a pretreatment. Germination percentage of these seeds was counted after 10 days.

seeds of A12 = test: as above; format: in vivo, Brassica oleracea; settings: pretreatment 10 d 10 C. in the light in 1 mM GA3, then non-germinated seeds 5 days at 20° C. in the light
Method: as §1

Measured: Percentage of germination of seeds

C=C1C[C@]23C[C@@]1(O)CC[C@H]2[C@@]12C=C[C@H](O)[C@@](C)(C(=O)O1)[C@H]2[C@@H]3C(=O)O [GA3]
100%: seeds of SL101; pretreatment 10 d 5 C. in the light in 1 mM GA3, then non-germinated seeds 5 days at 20° C. in the light | seeds of SL101; pretreatment 10 d 10 C. in the light in 1 mM GA3, then non-germinated seeds 5 days at 20° C. in the light | seeds of A12
